Where two headings read alike, the source gives them in different places.
Key:
Type in all cases: in vivo, human
[1] = Multiple-dose pharmacokinetics, plasma LNG concentrations on treatment day 55 (±1); settings: for AUC(0-t) / Cmax: female, human, plasma, po
Protocol: Serum SHBG concentrations were determined after ovulation in the pre-treatment cycle, on treatment day 55 (±1) and at the end-of-study examination. Multiple-dose PK parameters were investigated in approximately 15 subjects per dose group, 5 of them having a BMI≥30 kg/m^2. Blood samples for LNG determination were taken on treatment day 55 (±1) pre-dose and 0.5, 1, 2, 3, 4, 6 and 24 hours after dosing.
Plasma LNG concentrations were determined by a validated liquid chromatography hyphenated with tandem mass spectrometry method (ACC, Leidersbach, Germany). PK parameters were derived by means of non-compartmental analysis. Analysis of Variance (ANOVA) was used as basis for the calculation of 90% confidence intervals; point estimates and confidence intervals for area under the curve (AUC) and maximum concentration (Cmax) values and comparison of treatments which were calculated by parametric analysis. Descriptive statistics for each treatment group and for subgroups with BMI<30 and ≥30 kg/m^2 were calculated.

healthy, cyclic women [2] = experiment: Return of ovulation after the last treatment day; settings: for Ovulation observed, average days after last treatment: post-treatment period
Protocol: After the last treatment day, assessments were continued every three (±1) days until ovulation was observed, followed by P measurements 2 (±1) and, if necessary, 4 (±1) days after ovulation. An end-of-study examination was performed 6 (±1) days after ovulation, or on day 30 (±1) in case no ovulation had been observed until then.

healthy, cyclic women [3] = experiment: Serum FSH, LH, estradiol (E2) and progesterone (P) concentrations during treatment; settings: LNG 0.095 mg per day
Protocol: The tablets prepared in Example 1 were tested in a single-center, open-label, adaptive design study to evaluate the influence on hormonal and ovarian function and vaginal bleeding pattern of different higher dosages of LNG administered once daily for 28 days over two consecutive treatment cycles in healthy, cyclic women.
Subjects started study medication intake on the first day of menstrual bleeding after the pre-treatment cycle. One tablet was taken orally, around the same time every morning, during 56 consecutive days. Study visits were planned every three (±1) days from treatment day 3 (±1) until 27 (±1) and from day 31 (±1) until day 55 (±1). At each visit the diameter of the largest follicle-like structure (FLS) and serum follicle-stimulating hormone (FSH), luteinizing hormone (LH), estradiol (E2) and P concentrations were measured.
If ovulation was observed during treatment, the subsequent luteal phase was evaluated using the Landgren criterion, i.e. the luteal phase was considered adequate when P concentrations were >16 nmol/L during at least 5 days (Landgren et al., “Hormonal effects of the 300 μg norethisterone (NET) minipill. 1. Daily steroid levels in 43 subjects during a pretreatment cycle and during the second month of NET administration,” Contraception 1980; 21: pp. 87-113). TVUS measurements of the diameter of the largest FLS (mean of two directions) were performed using a Voluson E8 Expert device (GE Medical Systems). Serum FSH, LH, E2, P and SHBG concentrations were determined by validated chemiluminescent microparticle immunoassays (Abbott, Longford, Ireland). All pharmacodynamic parameters were evaluated descriptively.

[4] = 0.095 mg per day oral over 55 ± 1 consecutive days, entire treatment group
[5] = 0.115 mg per day oral over 55 ± 1 consecutive days, entire treatment group
[6] = 0.135 mg per day oral over 55 ± 1 consecutive days, entire treatment group
[7] = BMI < 30 kg/m^2, entire treatment period

- AUC0-24, ss, Max [1, 4]: 23.2 ng·h/mL
- AUC0-24, ss, Min [1, 4]: 7.29 ng·h/mL
- Cmax, ss, Max [1, 4]: 3.12 ng/mL
- Cmax, ss, Min [1, 4]: 903 pg/mL
- AUC0-24, ss, Max [1, 5]: 26.1 ng·h/mL
- AUC0-24, ss, Min [1, 5]: 5.58 ng·h/mL
- Cmax, ss, Max [1, 5]: 2.83 ng/mL
- Cmax, ss, Min [1, 5]: 730 pg/mL
- AUC0-24, ss, Max [1, 6]: 30 ng·h/mL
- AUC0-24, ss, Min [1, 6]: 10.2 ng·h/mL
- Cmax, ss, Max [1, 6]: 3.23 ng/mL
- Cmax, ss, Min [1, 6]: 1140 pg/mL
- Dose proportionality of total exposure over the dosing interval ([1]; 0.095, 0.115 and 0.135 mg per day, day 55±1): dose proportionality
- AUC(0-t) ([1]; 0.095 mg per day, 0.095 mg per day oral over 55 ± 1 consecutive days, entire treatment group, read-out: AUC0-24, ss, Geometric Mean): 12.4 ng·h/mL
- AUC(0-t) ([1]; 0.095 mg per day, 0.095 mg per day oral over 55 ± 1 consecutive days, entire treatment group, read-out: AUC0-24, ss, Mean): 13.1 ng·h/mL
- AUC(0-t) ([1]; 0.095 mg per day, 0.095 mg per day oral over 55 ± 1 consecutive days, entire treatment group, read-out: AUC0-24, ss, Median): 11.8 ng·h/mL
- Cmax ([1]; 0.095 mg per day, 0.095 mg per day oral over 55 ± 1 consecutive days, entire treatment group, read-out: Cmax, ss, Geometric Mean): 1.55 ng/mL
- Cmax ([1]; 0.095 mg per day, 0.095 mg per day oral over 55 ± 1 consecutive days, entire treatment group, read-out: Cmax, ss, Mean): 1.65 ng/mL
- Cmax ([1]; 0.095 mg per day, 0.095 mg per day oral over 55 ± 1 consecutive days, entire treatment group, read-out: Cmax, ss, Median): 1.63 ng/mL
- AUC(0-t) ([1]; 0.095 mg per day, 0.095 mg per day oral over 55 ± 1 consecutive days, subgroup BMI < 30 kg/m2, read-out: AUC0-24, ss, Geometric mean): 14 ng·h/mL
- Cmax ([1]; 0.095 mg per day, 0.095 mg per day oral over 55 ± 1 consecutive days, subgroup BMI < 30 kg/m2, read-out: Cmax, ss, Geometric mean): 1.83 ng/mL
- AUC(0-t) ([1]; 0.095 mg per day, 0.095 mg per day oral over 55 ± 1 consecutive days, subgroup BMI ≥ 30 kg/m^2, read-out: AUC0-24, ss, Geometric mean): 9.2 ng·h/mL
- Cmax ([1]; 0.095 mg per day, 0.095 mg per day oral over 55 ± 1 consecutive days, subgroup BMI ≥ 30 kg/m^2, read-out: Cmax, ss, Geometric mean): 1.05 ng/mL
- AUC(0-t) ([1]; 0.115 mg per day, 0.115 mg per day oral over 55 ± 1 consecutive days, entire treatment group, read-out: AUC0-24, ss, Geometric Mean): 13.8 ng·h/mL
- AUC(0-t) ([1]; 0.115 mg per day, 0.115 mg per day oral over 55 ± 1 consecutive days, entire treatment group, read-out: AUC0-24, ss, Mean): 14.8 ng·h/mL
- AUC(0-t) ([1]; 0.115 mg per day, 0.115 mg per day oral over 55 ± 1 consecutive days, entire treatment group, read-out: AUC0-24, ss, Median): 12.9 ng·h/mL
- Cmax ([1]; 0.115 mg per day, 0.115 mg per day oral over 55 ± 1 consecutive days, entire treatment group, read-out: Cmax, ss, Geometric Mean): 1.67 ng/mL
- Cmax ([1]; 0.115 mg per day, 0.115 mg per day oral over 55 ± 1 consecutive days, entire treatment group, read-out: Cmax, ss, Mean): 1.79 ng/mL
- Cmax ([1]; 0.115 mg per day, 0.115 mg per day oral over 55 ± 1 consecutive days, entire treatment group, read-out: Cmax, ss, Median): 1.81 ng/mL
- AUC(0-t) ([1]; 0.115 mg per day, 0.115 mg per day oral over 55 ± 1 consecutive days, subgroup BMI < 30 kg/m2, read-out: AUC0-24, ss, Geometric mean): 16.3 ng·h/mL
- Cmax ([1]; 0.115 mg per day, 0.115 mg per day oral over 55 ± 1 consecutive days, subgroup BMI < 30 kg/m2, read-out: Cmax, ss, Geometric mean): 2.03 ng/mL
- AUC(0-t) ([1]; 0.115 mg per day, 0.115 mg per day oral over 55 ± 1 consecutive days, subgroup BMI ≥ 30 kg/m^2, read-out: AUC0-24, ss, Geometric mean): 9.32 ng·h/mL
- Cmax ([1]; 0.115 mg per day, 0.115 mg per day oral over 55 ± 1 consecutive days, subgroup BMI ≥ 30 kg/m^2, read-out: Cmax, ss, Geometric mean): 1.05 ng/mL
- AUC(0-t) ([1]; 0.135 mg per day, 0.135 mg per day oral over 55 ± 1 consecutive days, entire treatment group, read-out: AUC0-24, ss, Geometric Mean): 16.8 ng·h/mL
- AUC(0-t) ([1]; 0.135 mg per day, 0.135 mg per day oral over 55 ± 1 consecutive days, entire treatment group, read-out: AUC0-24, ss, Mean): 17.5 ng·h/mL
- AUC(0-t) ([1]; 0.135 mg per day, 0.135 mg per day oral over 55 ± 1 consecutive days, entire treatment group, read-out: AUC0-24, ss, Median): 16.9 ng·h/mL
- Cmax ([1]; 0.135 mg per day, 0.135 mg per day oral over 55 ± 1 consecutive days, entire treatment group, read-out: Cmax, ss, Geometric Mean): 1.92 ng/mL
- Cmax ([1]; 0.135 mg per day, 0.135 mg per day oral over 55 ± 1 consecutive days, entire treatment group, read-out: Cmax, ss, Mean): 2.01 ng/mL
- Cmax ([1]; 0.135 mg per day, 0.135 mg per day oral over 55 ± 1 consecutive days, entire treatment group, read-out: Cmax, ss, Median): 1.93 ng/mL
- AUC(0-t) ([1]; 0.135 mg per day, 0.135 mg per day oral over 55 ± 1 consecutive days, subgroup BMI < 30 kg/m2, read-out: AUC0-24, ss, Geometric mean): 17.6 ng·h/mL
- Cmax ([1]; 0.135 mg per day, 0.135 mg per day oral over 55 ± 1 consecutive days, subgroup BMI < 30 kg/m2, read-out: Cmax, ss, Geometric mean): 2.14 ng/mL
- AUC(0-t) ([1]; 0.135 mg per day, 0.135 mg per day oral over 55 ± 1 consecutive days, subgroup BMI ≥ 30 kg/m^2, read-out: AUC0-24, ss, Geometric mean): 15.3 ng·h/mL
- Cmax ([1]; 0.135 mg per day, 0.135 mg per day oral over 55 ± 1 consecutive days, subgroup BMI ≥ 30 kg/m^2, read-out: Cmax, ss, Geometric mean): 1.52 ng/mL
- Time at which maximum plasma LNG values were reached after dosing ([1]; study drug administration on day 55±1, all dosages): 1 h
SMILES: C#C[C@]1(O)CC[C@H]2[C@@H]3CCC4=CC(=O)CC[C@@H]4[C@H]3CC[C@@]21CC (racemic) [LNG, levonorgestrel]
- Ovulation observed, average days after last treatment (healthy, cyclic women [2]; LNG 0.095 mg per day for 56 days): 15.5 days
- Ovulation observed, average days after last treatment (healthy, cyclic women [2]; LNG 0.115 mg per day for 56 days): 14.1 days
- Ovulation observed, average days after last treatment (healthy, cyclic women [2]; LNG 0.135 mg per day for 56 days): 12.8 days
- P concentrations after post-treatment ovulation (healthy, cyclic women [2]; majority of subjects, within the 30-day post-treatment period): ≥ 16 nmol/L
- LH peak in one of the ovulating subjects (healthy, cyclic women [3]): 68.0 IU/L
- Maximum E2 concentration, Mean ± SD (healthy, cyclic women [3]; [7]): 705 ± 537 pmol/L
- Mean E2 concentration, Mean ± SD (healthy, cyclic women [3]; [7]): 253 ± 140 pmol/L

Reference: US11679114B2, “Progestogen-only oral contraception” (Navad Life Sciences Pte, priority 2021, dated 2023)
